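Step 1: Grow cells in 96-well plates. Step 2: Expose to compound for 48 hours at 5 concentrations. Step 3: Interpolate endpoints linearly; if unreached, use highest concentration. The concentration for 50% growth inhibition is given as GI50. TGI denotes the concentration required for complete inhibition of growth.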
Assays:
Test in all cases: growth of human tumour cells (NCI), 48 h
786-0 renal = tested on: 786-0 renal
A498 renal = tested on: A498 renal
A549 NSCLC = tested on: A549 NSCLC
ACHN renal = tested on: ACHN renal
BT-549 breast = tested on: BT-549 breast
CAKI-1 renal = tested on: CAKI-1 renal
CCRF-CEM leukemia = tested on: CCRF-CEM leukemia
COLO 205 colon = tested on: COLO 205 colon
DU-145 prostate = tested on: DU-145 prostate
EKVX NSCLC = tested on: EKVX NSCLC
HCC-2998 colon = tested on: HCC-2998 colon
HCT-116 colon = tested on: HCT-116 colon
HCT-15 colon = tested on: HCT-15 colon
HL-60(TB) leukemia = tested on: HL-60(TB) leukemia
HOP-62 NSCLC = tested on: HOP-62 NSCLC
HOP-92 NSCLC = tested on: HOP-92 NSCLC
HS 578T breast = tested on: HS 578T breast
HT29 colon = tested on: HT29 colon
IGROV1 ovarian = tested on: IGROV1 ovarian
K-562 leukemia = tested on: K-562 leukemia
KM12 colon = tested on: KM12 colon
LOX IMVI melanoma = tested on: LOX IMVI melanoma
M14 melanoma = tested on: M14 melanoma
MALME-3M melanoma = tested on: MALME-3M melanoma
MCF7 breast = tested on: MCF7 breast
MDA-MB-231 breast = tested on: MDA-MB-231 breast
MDA-MB-435 = tested on: MDA-MB-435
MOLT-4 leukemia = tested on: MOLT-4 leukemia
NCI-H226 lung = tested on: NCI-H226 lung
NCI-H23 lung = tested on: NCI-H23 lung
NCI-H460 lung = tested on: NCI-H460 lung
NCI-H522 lung = tested on: NCI-H522 lung
NCI/ADR-RES ovarian = tested on: NCI/ADR-RES ovarian
OVCAR-3 ovarian = tested on: OVCAR-3 ovarian
OVCAR-4 ovarian = tested on: OVCAR-4 ovarian
OVCAR-5 ovarian = tested on: OVCAR-5 ovarian
OVCAR-8 ovarian = tested on: OVCAR-8 ovarian
PC-3 prostate = tested on: PC-3 prostate
RPMI-8226 leukemia = tested on: RPMI-8226 leukemia
SF-268 CNS = tested on: SF-268 CNS
SF-295 CNS = tested on: SF-295 CNS
SF-539 CNS = tested on: SF-539 CNS
SK-MEL-2 melanoma = tested on: SK-MEL-2 melanoma
SK-MEL-28 melanoma = tested on: SK-MEL-28 melanoma
SK-MEL-5 melanoma = tested on: SK-MEL-5 melanoma
SK-OV-3 ovarian = tested on: SK-OV-3 ovarian
SN12C renal = tested on: SN12C renal
SNB-19 CNS = tested on: SNB-19 CNS
SNB-75 CNS = tested on: SNB-75 CNS
SR leukemia = tested on: SR leukemia
SW-620 colon = tested on: SW-620 colon
T-47D breast = tested on: T-47D breast
TK-10 renal = tested on: TK-10 renal
U251 CNS = tested on: U251 CNS
UACC-257 melanoma = tested on: UACC-257 melanoma
UACC-62 melanoma = tested on: UACC-62 melanoma

Cc1nc(N)sc1-c1csc(Nc2ccc(C(F)(F)F)cc2)n1 was tested, and the GI50 (786-0 renal) was 4.41 µM, the TGI (786-0 renal) was 17.5 µM and the GI50 (A498 renal) was 11.9 µM. It also gave a TGI (A498 renal) of 25.1 µM, a GI50 (A549 NSCLC) of 7.34 µM and a TGI (A549 NSCLC) of 35.8 µM. The GI50 (ACHN renal) was 2.75 µM, the TGI (ACHN renal) was 13.9 µM and the GI50 (BT-549 breast) was 2.03 µM. The TGI (BT-549 breast) was 6.75 µM, the GI50 (CAKI-1 renal) was 3.62 µM and the TGI (CAKI-1 renal) was 17.5 µM. For the same compound, the GI50 (CCRF-CEM leukemia) was 3.22 µM, the TGI (CCRF-CEM leukemia) was 53 µM and the GI50 (COLO 205 colon) was 11.9 µM. The TGI (COLO 205 colon) was 36.9 µM, the GI50 (DU-145 prostate) was 4.59 µM and the TGI (DU-145 prostate) was 17.7 µM. For the same compound, the GI50 (EKVX NSCLC) was 3.83 µM, the TGI (EKVX NSCLC) was 17.6 µM and the GI50 (HCC-2998 colon) was 4.66 µM. The TGI (HCC-2998 colon) was 17.3 µM, the GI50 (HCT-116 colon) was 3.36 µM and the TGI (HCT-116 colon) was 16 µM. For the same compound, the GI50 (HCT-15 colon) was 3.02 µM, the TGI (HCT-15 colon) was 11.9 µM and the GI50 (HL-60(TB) leukemia) was 13.2 µM. For the same compound, the TGI (HL-60(TB) leukemia) was 32.2 µM, the GI50 (HOP-62 NSCLC) was 7.86 µM and the TGI (HOP-62 NSCLC) was 26.4 µM. It also gave a GI50 (HOP-92 NSCLC) of 2.63 µM, a TGI (HOP-92 NSCLC) of 15 µM and a GI50 (HS 578T breast) of 2.84 µM. The TGI (HS 578T breast) was 23.6 µM, the GI50 (HT29 colon) was 2.49 µM and the TGI (HT29 colon) was 7.09 µM. It also gave a GI50 (IGROV1 ovarian) of 2.01 µM, a TGI (IGROV1 ovarian) of 14.7 µM and a GI50 (K-562 leukemia) of 3.27 µM. The TGI (K-562 leukemia) was 31 µM, the GI50 (KM12 colon) was 3.55 µM and the TGI (KM12 colon) was 14.5 µM. The GI50 (LOX IMVI melanoma) was 2.44 µM, the TGI (LOX IMVI melanoma) was 9.9 µM and the GI50 (M14 melanoma) was 3.25 µM. For the same compound, the TGI (M14 melanoma) was 14.8 µM, the GI50 (MALME-3M melanoma) was 4.11 µM and the TGI (MALME-3M melanoma) was 17.6 µM. For the same compound, the GI50 (MCF7 breast) was 2.65 µM, the TGI (MCF7 breast) was 16 µM and the GI50 (MDA-MB-231 breast) was 3.45 µM. The TGI (MDA-MB-231 breast) was 17.5 µM, the GI50 (MDA-MB-435) was 4.43 µM and the TGI (MDA-MB-435) was 17.4 µM. For the same compound, the GI50 (MOLT-4 leukemia) was 2.71 µM, the TGI (MOLT-4 leukemia) was 21.1 µM and the GI50 (NCI-H226 lung) was 2.72 µM. It also gave a TGI (NCI-H226 lung) of 24.3 µM, a GI50 (NCI-H23 lung) of 5.57 µM and a TGI (NCI-H23 lung) of 21.7 µM. For the same compound, the GI50 (NCI-H460 lung) was 3.44 µM, the TGI (NCI-H460 lung) was 15.7 µM and the GI50 (NCI-H522 lung) was 4.75 µM. The TGI (NCI-H522 lung) was 18.7 µM, the GI50 (NCI/ADR-RES ovarian) was 5.36 µM and the TGI (NCI/ADR-RES ovarian) was 21 µM. The GI50 (OVCAR-3 ovarian) was 4.41 µM, the TGI (OVCAR-3 ovarian) was 17.3 µM and the GI50 (OVCAR-4 ovarian) was 3.63 µM. For the same compound, the TGI (OVCAR-4 ovarian) was 16.7 µM, the GI50 (OVCAR-5 ovarian) was 4.42 µM and the TGI (OVCAR-5 ovarian) was 18.9 µM. The GI50 (OVCAR-8 ovarian) was 11.1 µM, the TGI (OVCAR-8 ovarian) was 25.6 µM and the GI50 (PC-3 prostate) was 4.12 µM. The TGI (PC-3 prostate) was 22.2 µM, the GI50 (RPMI-8226 leukemia) was 3.98 µM and the TGI (RPMI-8226 leukemia) was 72.3 µM. It also gave a GI50 (SF-268 CNS) of 6.75 µM, a TGI (SF-268 CNS) of 22.6 µM and a GI50 (SF-295 CNS) of 3.08 µM. It also gave a TGI (SF-295 CNS) of 15.1 µM, a GI50 (SF-539 CNS) of 6.69 µM and a TGI (SF-539 CNS) of 20 µM. The GI50 (SK-MEL-2 melanoma) was 1.76 µM, the TGI (SK-MEL-2 melanoma) was 16.4 µM and the GI50 (SK-MEL-28 melanoma) was 10.2 µM. For the same compound, the TGI (SK-MEL-28 melanoma) was 21.9 µM, the GI50 (SK-MEL-5 melanoma) was 3.32 µM and the TGI (SK-MEL-5 melanoma) was 11.9 µM. The GI50 (SK-OV-3 ovarian) was 16.4 µM, the TGI (SK-OV-3 ovarian) was 33.4 µM and the GI50 (SN12C renal) was 6.72 µM. For the same compound, the TGI (SN12C renal) was 21 µM, the GI50 (SNB-19 CNS) was 11.9 µM and the TGI (SNB-19 CNS) was 24.8 µM. It also gave a GI50 (SNB-75 CNS) of 3.41 µM, a TGI (SNB-75 CNS) of 16.9 µM and a GI50 (SR leukemia) of 3.6 µM. It also gave a TGI (SR leukemia) of 24.2 µM, a GI50 (SW-620 colon) of 4.92 µM and a TGI (SW-620 colon) of 19.5 µM. For the same compound, the GI50 (T-47D breast) was 1.65 µM, the TGI (T-47D breast) was 10.1 µM and the GI50 (TK-10 renal) was 8.73 µM. For the same compound, the TGI (TK-10 renal) was 21.4 µM, the GI50 (U251 CNS) was 7.17 µM and the TGI (U251 CNS) was 26.2 µM. For the same compound, the GI50 (UACC-257 melanoma) was 9.37 µM, the TGI (UACC-257 melanoma) was 22.1 µM and the GI50 (UACC-62 melanoma) was 8.61 µM. The TGI (UACC-62 melanoma) was 21 µM.
